In one data set the target is T1, human glucagon receptor (Homo sapiens, UniProt P47871).
T1 construct: expressed in transfected cells; host or cells: BHK cells (parent BHK570, CRE luciferase clone BHK/KZ10-20-48), clone pLJ6'-4-25
Nature of the data set: Glucagon receptor potency, CRE luciferase reporter gene assay in BHK cells. The settings on record: BHK cells expressing human glucagon receptor, read-out: EC50 GlucR. Format: cell-based. The procedure: The purpose of this example was to test the potency, of the glucagon derivatives of the invention, in vitro. The in vitro potency is the measure of human GLP-1 receptor or glucagon receptor activation, respectively, in a whole cell assay.
In vitro potency was determined by measuring the response of human GLP-1 or glucagon receptor, respectively, in a reporter gene assay. The assay was performed in a stably transfected BHK cell line that expresses either the human GLP-1 receptor or the human glucagon receptor and contains the DNA for the cAMP response element (CRE) coupled to a promoter and the gene for firefly luciferase (CRE luciferase). […] When assay incubation was completed, the luciferase substrate (luciferin) was added and the enzyme converted luciferin to oxyluciferin and produces bioluminescence. The luminescence was measured as the readout for the assay.
The cells used in this assay (clone pLJ6′-4-25) were BHK cells with BHK570 as a parent cell line expressing the CRE luciferase gene (clone BHK/KZ10-20-48) and were established by further transfection with the human glucagon receptor (clone pLJ6′ in pHZ-1 vector).
The cells were cultured at 5% CO2 in DMEM medium with 10% FBS, 1×GlutaMAX, 1 mg/ml G418, 240 nM MTX (methotrexate) and 1% pen/strep (penicillin/streptomycin). They were aliquoted and stored in liquid nitrogen. Before each assay, an aliquot was taken up and washed three times in PBS before being suspended at the desired concentration in assay medium. For 96-well plates the suspension was made to give a final concentration of 5×10EE3 cells/well.
The following chemicals were used in the assay: Pluronic F-68 (10%) (Gibco 2404), ovalbumin (Sigma A5503), DMEM w/o phenol red (Gibco 11880-028), 1 M Hepes (Gibco 15630), Glutamax 100× (Gibco 35050) and steadylite plus (PerkinElmer 6016757).
Assay Medium consisted of DMEM w/o phenol red, 10 mM Hepes, 1× GlutaMAX, 2% Ovalbumin and 0.2% Pluronic F-68.
Cell stocks were thawed in a 37° C. water bath. Cells were washed three times in PBS. The cells were counted and adjusted to 5×10EE3 cells/50 μl (1×10EE5 cells/ml) in Assay Medium. A 50 μl aliquot of cells was transferred to each well in the assay plate.
Stocks of the test compounds and reference compounds were diluted to a concentration of […] in Assay Medium. Compounds were diluted 10-fold to give the following concentrations: 2×10EE-6 M, 2×10EE-7 M, 2×10EE-8 M; 2×10EE-9 M, 2×10EE-10 M, 2×10EE-11 M, 2×10EE-12 M and 2×10EE-13 M. For each compound a blank assay medium control was also included.
A 50 μl aliquot of compound or blank was transferred from the dilution plate to the assay plate. Compounds were tested at the following final concentrations: 1×10EE-6 M, 1×10EE-7 M, 1×10EE-8 M; 1×10EE-9 M, 1×10EE-10 M, 1×10EE-11 M and 1×10EE-12 M and 1×10EE-13 M.
The assay plate was incubated for 3 h in a 5% CO2 incubator at 37° C. The assay plate was removed from the incubator and allowed to stand at room temperature for 15 min. A 100 μl aliquot of steadylite plus reagent was added to each well of the assay plate (reagent is light sensitive). Each assay plate was covered with aluminum foil to protect it from light and shaken for 30 min at room temperature. Each assay plate was read in a Perkin Elmer TopCount NXT instrument.
The data from the TopCount instrument was transferred to GraphPad Prism software. The software performed a non-linear regression (log(agonist) vs response-Variable slope (four parameter)). EC50 values were calculated by the software and reported in pM.
For orientation: A reporter such as luciferase makes a cellular process visible.

A short description of data set [1]: Thioflavin T (ThT) fibrillation assay for physical stability. Format: physicochemical. The settings on record: 250 μM in 10 mM HEPES buffer, pH 7.5, 37° C., shaking 960 rpm. An outline of the steps: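 Fibrillation was followed by ThT (1 μM) fluorescence every 20 min, 444/485 nm, for 250 μM peptide in 10 mM HEPES pH 7.5 shaken at 960 rpm, 37° C. Lag time (t0−2τ) and apparent rate constant (1/τ) come from a sigmoidal fit. Recovery is % of initial concentration remaining soluble after centrifugation and filtration (RP-HPLC).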

Data set [2] in a line: Chemical stability assessment by RP-UPLC. It is filed as physicochemical. Conditions: 333 μM, 8 mM phosphate buffer pH 7.3, 37° C. vs 5° C. The procedure: The purpose of this assay was to assess the chemical stability of the glucagon derivatives of the invention in aqueous solutions.
Chemical stability of glucagon derivatives or analogues was investigated by RP-UPLC separation and UV detection. Lyophilized samples were dissolved in a 8 mM Phosphate buffer pH 8.6, followed by adjustment to pH 7.3.using HCl to a final concentration of 333 μM. Samples were incubated for 14 days at 5° C. and 37° C. followed by RP-UPLC analysis. Purity was defined as the area percentage of the main peak in relation to the total area of all integrated peaks in each chromatogram. Purity loss after 14 days at 37° C. was determined as the difference in purity between the samples incubated at 5° C. and 37° C., divided by the purity of the sample after incubation for 14 days at 5° C.
RP-UPLC analysis was performed using a Waters BEH130 2.1 mm×150 mm, 1.7 μm column operated at 50° C. and a flow rate of 0.4 mL/min using a mobile phase system consisting of A: 0.05% TFA in MQ-water B: 0.05% TFA in Acetonitrile. UV-detection was performed at 215 nm. The typical gradient profile used for most of the samples is shown below.
For some individual derivatives or analogues eluting at substantially different retention times compared with the majority of derivatives or analogues, some adjustments to the gradient profile were made to better enable purity assessment comparison across samples. The data confirmed the improved chemical stability of the glucagon derivatives of this invention.

This is an account of results in US9474790B2, “Stable, protracted GLP-1/glucagon receptor co-agonists for medical use” (Novo Nordisk A/S, priority 2013, dated 2016).

The structures appear in SMILES notation. Numbered stars: 1 amine (or outer) side, 2 acyl side, 3 side chain; on linkers, the order of the positions; unused ones are H or OH. Square brackets hold non-standard residues; d marks the D form. Side chains are listed from the residue outwards. Peptide text beside a SMILES is read from it. * marks the point of attachment. C18 diacid = O=C(O)CCCCCCCCCCCCCCCCC(=O)*; γGlu = O=C(O)[C@H](CCC(=O)[*:2])N[*:1]; AEEA = NCCOCCOCC(=O)O; Aib = CC(C)(N)C(=O)O

T1 sequence (P47871 26-477): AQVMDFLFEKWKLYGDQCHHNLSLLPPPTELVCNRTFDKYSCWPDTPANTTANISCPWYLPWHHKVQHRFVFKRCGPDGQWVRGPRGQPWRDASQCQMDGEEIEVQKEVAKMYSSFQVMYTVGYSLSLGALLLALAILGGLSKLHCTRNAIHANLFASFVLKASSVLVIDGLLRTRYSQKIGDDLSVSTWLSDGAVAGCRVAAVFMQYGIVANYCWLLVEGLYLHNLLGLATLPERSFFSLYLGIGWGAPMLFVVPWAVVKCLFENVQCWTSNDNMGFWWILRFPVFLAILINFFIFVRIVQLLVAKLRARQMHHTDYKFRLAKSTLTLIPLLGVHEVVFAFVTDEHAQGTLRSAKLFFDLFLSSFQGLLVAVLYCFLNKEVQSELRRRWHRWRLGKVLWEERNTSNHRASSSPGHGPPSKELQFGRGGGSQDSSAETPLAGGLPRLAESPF

Regarding `CC(C)C[C@H](NC(=O)[C@H](CC(C)C)NC(=O)[C@H](Cc1c[nH]c2ccccc12)NC(=O)[C@H](CCC(N)=O)NC(=O)[C@@H](NC(=O)[C@H](Cc1ccccc1)NC(=O)[C@H](CCC(=O)O)NC(=O)[C@H](CCCNC(=N)N)NC(=O)[C@H](C)NC(=O)[C@H](CCCNC(=N)N)NC(=O)[C@H](CCCNC(=N)N)NC(=O)[C@H](CC(C)C)NC(=O)[C@H](CC(=O)O)NC(=O)[C@H](CC(C)C)NC(=O)[C@H](Cc1ccc(O)cc1)NC(=O)[C@H](CCCCN)NC(=O)[C@H](CO)NC(=O)[C@H](CC(C)C)NC(=O)[C@H](CC(=O)O)NC(=O)[C@H](CO)NC(=O)[C@@H](NC(=O)[C@H](Cc1ccccc1)NC(=O)[C@@H](NC(=O)CNC(=O)[C@H](CCC(N)=O)NC(=O)C(C)(C)NC(=O)[C@@H](N)Cc1c[nH]cn1)[C@@H](C)O)[C@@H](C)O)C(C)C)C(=O)N[C@@H](CC(N)=O)C(=O)N[C@@H](CCCCNC(=O)CC[C@H](NC(=O)CC[C@H](NC(=O)COCCOCCNC(=O)CC[C@H](NC(=O)CCCCCCCCCCCCCCCCC(=O)O)C(=O)O)C(=O)O)C(=O)O)C(N)=O` [Example 38, N^ε29-[(4S)-4-carboxy-4-[[(4S)-4-carboxy-4-[[2-[2-[2-[[(4S)-4-carboxy-4-(17-carboxyheptadecanoylamino)butanoyl]amino]ethoxy]ethoxy]acetyl]amino]butanoyl]amino]butanoyl]-[Aib2,Leu10,Leu16,Arg20,Glu21,Leu27,Lys29]-Glucagon amide] (H-H[Aib]QGTFTSDLSKYLDLRRAREFVQWLLNK([γGlu-γGlu-AEEA-γGlu-C18 diacid])-NH2; N-terminus assumed), the EC50 on human glucagon receptor was 0.024 nM. The compound further came in with a THT assay Lag time (Ex. 76) in data set [1] of 45 h. The “Purity loss; 14 days at 37° C.” value in data set [2] stood at 2%.

The term EC50 denotes the concentration that produces a half-maximal response.
